Measurements: patent US20210206818A1, “MESSENGER RIBONUCLEIC ACIDS FOR THE PRODUCTION OF INTRACELLULAR BINDING POLYPEPTIDES AND METHODS OF USE THEREOF” (ModernaTX, Inc., priority 2016, published 2021)

Assays:
MCL1 = assay: Western blotting of MCL1 downregulation in Hep3B cells; assay type: cell-based, human; details: 24 hours, sorafenib at 10 uM
Procedure: A first series of experiments was conducted to determine whether specific targeting of MCL1 recapitulates sorafenib synergy with SQT-BH3 in cells in vitro.

[1] = tested on: Hep3B human hepatocellular carcinoma cells; assay: Cell death of Hep3B cells transfected with truncated BID (tBID) mmRNA constructs (CellTiterGlo); assay type: cell-based; details: CellTiterGlo (CTG) assay, varying doses
From the text: One construct encoded a single copy of amino acids 61-195 of the BID protein that includes its BH3 domain (with a FLAG epitope tag). The open reading frame (ORF) amino acid sequence and corresponding nucleotide sequence encoding the ORF a.a. sequence are shown in SEQ ID NOs: 289 and 290, respectively. The sequence for the corresponding construct without the FLAG epitope tag is shown in SEQ ID NO: 291. A second construct encoded a single copy of amino acids 77-195 of the BID protein that includes its BH3 domain (with a FLAG epitope tag). The open reading frame (ORF) amino acid sequence and corresponding nucleotide sequence encoding the ORF a.a. sequence are shown in SEQ ID NOs: 292 and 293, respectively. The sequence for the corresponding construct without the FLAG epitope tag is shown in SEQ ID NO: 294. The open reading frame (ORF) amino acid sequence and corresponding nucleotide sequence encoding the ORF a.a. sequence of a third construct, containing amino acids 61-104 of the BID protein, are shown in SEQ ID NOs: 286 and 287, respectively. The sequence for the corresponding construct without the FLAG epitope tag is shown in SEQ ID NO: 288. […]
Hep3B cells/well were plated in 96 well plates and the cells were transfected with varying doses of the mmRNA constructs. Cell death was measured using the CellTiterGlo (CTG) assay. […]

Row | Molecule | MCL1 downregulation (Western blotting) (MCL1) | apoptosis of Hep3B cells [1]
1 | CNC(=O)c1cc(Oc2ccc(NC(=O)Nc3ccc(Cl)c(C(F)(F)F)c3)cc2)ccn1 [sorafenib] | downregulated MCL1 | –
2 | tBID (77-195): mmRNA encoding a single copy of amino acids 77-195 of the BID protein with FLAG tag; SEQ ID NOs: 292 and 293 (nucleic acid, mmRNA, FLAG tag; Synthetic: hum.tBID(77-195).FLAG) DNA: ATGGAAAGTCAAGAAGACATCATCCGGAATATTGCCAGGCACCTCGCCCAGGTCGGGGACAGCATGGACCGTAGCATCCCTCCGGGCCTGGTGAACGGCCTGGCCCTGCAGCTCAGGAACACCAGCCGGTCGGAGGAGGACCGGAACAGGGACCTGGCCACTGCCCTGGAGCAGCTGCTGCAGGCCTACCCTAGAGACATGGAGAAGGAGAAGACCATGCTGGTGCTGGCCCTGCTGCTGGCCAAGAAGGTGGCCAGTCACACGCCGTCCTTGCTCCGTGATGTCTTTCACACAACAGTGAATTTTATTAACCAGAACCTACGCACCTACGTGAGGAGCTTAGCCAGAAATGGGATGGACATGGATTACAAGGACGATGATGACAAG | – | induced apoptosis of Hep3B cells
